ChEMBL document CHEMBL2311414, “Synthesis, antimalarial activity and cytotoxic potential of new monocarbonyl analogues of curcumin” (Bioorg Med Chem Lett, 2013)

Key:
KB = test: Cytotoxicity against human KB cells after 48 hrs by MTT assay; assay type: functional, cell-based
PC-3 = test: Cytotoxicity against human PC3 cells after 48 hrs by MTT assay; assay type: functional, cell-based; settings: PC-3, 48 h
HeLa = test: Cytotoxicity against human HeLa cells after 48 hrs by MTT assay; assay type: functional, cell-based
[1] = Selectivity index, ratio of IC50 for african green monkey Vero cells to IC50 for chloroquine-resistant Plasmodium falciparum W2; assay type: toxicity, cell-based; settings: read-out: Ratio IC50
[2] = Selectivity index, ratio of IC50 for african green monkey Vero cells to IC50 for chloroquine-sensitive Plasmodium falciparum D6; assay type: toxicity, cell-based; settings: read-out: Ratio IC50
DU-145 = test: Cytotoxicity against human DU145 cells after 48 hrs by MTT assay; assay type: functional, cell-based; settings: DU-145, 48 h
Plasmodium falciparum [3] = test: Antimalarial activity against chloroquine-resistant Plasmodium falciparum W2 infected in RBC assessed as plasmodial LDH activity after 72 hrs; assay type: functional, organism-based
Vero = test: Cytotoxicity against african green monkey Vero cells up to 9 uM after 48 hrs by neutral red assay; assay type: cell-based; settings: chlorocebus sabaeus
MOLT-4 = test: Cytotoxicity against human MOLT4 cells after 48 hrs by MTT assay; assay type: functional, cell-based; settings: MOLT-4, 48 h
Plasmodium falciparum [4] = test: Antimalarial activity against chloroquine-sensitive Plasmodium falciparum D6 infected in RBC assessed as plasmodial LDH activity after 72 hrs; assay type: functional, organism-based
[5] = Plasmodium falciparum, W2, 72 h, read-out: IC50
[6] = Plasmodium falciparum, D6, 72 h, read-out: IC50

Structure (SMILES)	IC50 (KB)	IC50 (PC-3)	IC50 (HeLa)	selectivity ratio [1]	selectivity ratio [2]	IC50 (DU-145)	IC50 (Plasmodium falciparum [3]; [5])	Activity (Vero)	IC50 (MOLT-4)	IC50 (Plasmodium falciparum [4]; [6])	IC50 (Plasmodium falciparum [3])	IC50 (Plasmodium falciparum [4])
COc1cc(/C=C2\CC/C(=C\c3ccc(OCCCCN4CCOCC4)c(OC)c3)C2=O)ccc1OCCCCN1CCOCC1	620 nM	280 nM	720 nM	> 11.9	> 10.8	670 nM	630 nM	Non-toxic	360 nM	690 nM	–	–
COc1cccc2c1C(=O)c1c(O)c3c(c(O)c1C2=O)C[C@@](O)(C(=O)CO)C[C@@H]3O[C@H]1C[C@H](N)[C@H](O)[C@H](C)O1 [DOXORUBICIN]	330 nM	200 nM	2200 nM	–	–	200 nM	–	–	–	–	–	–
COc1cc(/C=C2\CC/C(=C\c3ccc(OCCCCn4ccnc4C)c(OC)c3)C2=O)ccc1OCCCCn1ccnc1C	–	–	–	> 1.7	> 1.9	–	4480 nM	Non-toxic	–	4000 nM	–	–
COc1cc(/C=C2\CC/C(=C\c3ccc(OCCN4CCOCC4)c(OC)c3)C2=O)ccc1OCCN1CCOCC1	–	–	–	> 3.4	> 2.6	–	2410 nM	Non-toxic	–	3110 nM	–	–
COc1cc(/C=C2\CC/C(=C\c3ccc(OCCCn4ccnc4C)c(OC)c3)C2=O)ccc1OCCCn1ccnc1C	1990 nM	200 nM	3150 nM	> 2.6	> 4	3900 nM	3010 nM	Non-toxic	660 nM	2010 nM	–	–
COc1cc(/C=C2\CC/C(=C\c3ccc(OCCn4ccnc4)c(OC)c3)C2=O)ccc1OCCn1ccnc1	–	–	–	> 4.9	> 4	–	1810 nM	Non-toxic	–	2210 nM	–	–
COc1cc(/C=C2\CC/C(=C\c3ccc(OCCCCN4CCCCCC4)c(OC)c3)C2=O)ccc1OCCCCN1CCCCCC1	2250 nM	300 nM	1390 nM	> 4	> 5.3	1010 nM	1820 nM	Non-toxic	410 nM	1360 nM	–	–
O=C1/C(=C/c2ccc(OCCCCN3CCOCC3)cc2)CCC/C1=C\c1ccc(OCCCCN2CCOCC2)cc1	–	–	–	–	–	–	–	Non-toxic	–	–	Not Active	Not Active
O=C1/C(=C/c2ccc(OCCCCN3CCOCC3)cc2)CC/C1=C\c1ccc(OCCCCN2CCOCC2)cc1	–	–	–	–	–	–	–	Non-toxic	–	–	Not Active	Not Active
O=C1/C(=C/c2ccc(OCCn3ccnc3)cc2)CC/C1=C\c1ccc(OCCn2ccnc2)cc1	–	–	–	> 26.4	> 21.6	–	370 nM	Non-toxic	–	450 nM	–	–
CCN(CC)CCCC(C)Nc1ccnc2cc(Cl)ccc12 (configuration not stated) [CHLOROQUINE]	–	–	–	–	–	–	–	Non-toxic	–	–	–	–
Cc1nccn1CCCCOc1ccc(/C=C2\CC/C(=C\c3ccc(OCCCCn4ccnc4C)cc3)C2=O)cc1	–	–	–	> 6	> 7.7	–	1410 nM	Non-toxic	–	1090 nM	–	–
CN(C)CCCCOc1ccc(/C=C2\CC/C(=C\c3ccc(OCCCCN(C)C)cc3)C2=O)cc1	1650 nM	2900 nM	6800 nM	–	–	4400 nM	–	–	330 nM	–	–	–
COc1cc(/C=C2\CC/C(=C\c3ccc(OCCN4CCCCC4)c(OC)c3)C2=O)ccc1OCCN1CCCCC1	4400 nM	> 5000 nM	400 nM	> 15.4	> 16.4	> 5000 nM	530 nM	Non-toxic	20 nM	500 nM	–	–
COc1cc(/C=C2\CC/C(=C\c3ccc(OCCCCn4ccnc4)c(OC)c3)C2=O)ccc1OCCCCn1ccnc1	–	–	–	> 14	> 14.9	–	560 nM	Non-toxic	–	530 nM	–	–
C[C@@H]1CC[C@H]2[C@@H](C)C(=O)O[C@@H]3O[C@@]4(C)CC[C@@H]1[C@]32OO4 [ARTEMISININ]	–	–	–	> 800	> 470	–	11 nM	Non-toxic	–	19 nM	–	–
O=C1/C(=C/c2ccc(OCCCCn3ccnc3)cc2)CC/C1=C\c1ccc(OCCCCn2ccnc2)cc1	–	–	–	> 2.5	> 4.3	–	3540 nM	Non-toxic	–	2040 nM	–	–
COc1cc(/C=C2\CC/C(=C\c3ccc(OCCn4ccnc4C)c(OC)c3)C2=O)ccc1OCCn1ccnc1C	3400 nM	> 5000 nM	900 nM	> 6	> 6.5	> 5000 nM	1380 nM	Non-toxic	100 nM	1280 nM	–	–
COc1cc(/C=C2\CCC/C(=C\c3ccc(OCCCN4CCCCC4)c(OC)c3)C2=O)ccc1OCCCN1CCCCC1	1650 nM	6910 nM	1950 nM	–	–	2050 nM	–	–	550 nM	–	–	–
COc1cc(/C=C2\CC/C(=C\c3ccc(OCCBr)c(OC)c3)C2=O)ccc1OCCBr	–	–	–	–	–	–	–	Non-toxic	–	–	Not Active	Not Active
O=C1/C(=C/c2ccc(OCCCCN3CCCCC3)cc2)CCC/C1=C\c1ccc(OCCCCN2CCCCC2)cc1	2540 nM	1530 nM	3630 nM	–	–	2110 nM	–	–	730 nM	–	–	–
COc1cc(/C=C2\CC/C(=C\c3ccc(OCCN(C)C)c(OC)c3)C2=O)ccc1OCCN(C)C	> 5000 nM	> 5000 nM	500 nM	> 15.4	> 21.6	> 5000 nM	620 nM	Non-toxic	30 nM	440 nM	–	–
Cc1nccn1CCOc1ccc(/C=C2\CC/C(=C\c3ccc(OCCn4ccnc4C)cc3)C2=O)cc1	–	–	–	> 21.6	> 26.4	–	430 nM	Non-toxic	–	350 nM	–	–
COc1cc(/C=C2\CC/C(=C\c3ccc(OCCCn4ccnc4)c(OC)c3)C2=O)ccc1OCCCn1ccnc1	–	–	–	–	–	–	–	Non-toxic	–	–	Not Active	Not Active
COc1cc(/C=C2\CC/C(=C\c3ccc(OCCCN(C)C)c(OC)c3)C2=O)ccc1OCCCN(C)C	200 nM	1500 nM	640 nM	> 6	> 7.9	430 nM	1530 nM	Non-toxic	430 nM	1140 nM	–	–
COc1cc(/C=C2\CC/C(=C\c3ccc(OCCCCN4CCCCC4)c(OC)c3)C2=O)ccc1OCCCCN1CCCCC1	550 nM	500 nM	490 nM	> 2.6	> 4.3	460 nM	2850 nM	Non-toxic	320 nM	1740 nM	–	–
